Test results taken from article PMC8318231, “Rate-of-Kill (RoK) assays to triage large compound sets for Chagas disease drug discovery: Application to GSK Chagas Box” (PLoS Neglected Tropical Diseases, 2021).
Read-outs that look alike come from different tables or passages of the source.

Key:
[1] = test system: T. cruzi Tulahuen trypomastigotes; test: T. cruzi trypomastigote assay (Cell Titer-Glo viability, ATP luminescence); format: cell-based, Trypanosoma cruzi; conditions: for activity in trypomastigotes assay (in words): 48 and 72 hours; for IC50: Trypanosoma cruzi, TULAHUEN; for pIC50 versus trypomastigotes: invariable at the two incubation times tested
Procedure, shortened: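 Compounds were tested in dose response or once at a final 5 μM against 5 × 10^4 trypomastigotes per well (DMEM, 2% FBS), collected on days 5–8 from LLC-MK2 infected cultures. ATP luminescence via CellTiter-Glo reports live parasites; DMSO defines 0% and cell-free wells 100% effect.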

[2] = test system: T. cruzi intracellular amastigotes in H9c2 cells; test: Rate-of-Kill (RoK) high-content imaging assay, amastigotes per cell (AM/CELL) and curve descriptors; format: cell-based, Trypanosoma cruzi; parameters: key to ME_24h / ME_48h / ME_72h: % reduction in parasite burden (cidal response); t50pct_MCC50 / t50pct_Cmax: unit not given here; conditions: for ME_24h: 24h; for ME_48h: 48h; for ME_72h: 72h; for AM/CELL NORM: figure 4 A; for Emax: maximum percentage of parasite burden reduction reached by any concentration, 24 hours, read-out: ME 24h (maximum effect at 24 hours, intracellular amastigotes); for t50%_Cmax / tlag_Cmax / t50pct_Cmax: at Cmax; for ME_24h (%): maximum effect at 24 h; for ME_24h (%) / ME_48h (%) / ME_72h (%): RoK assay; for ME_48h (%): maximum effect at 48 h; for ME_72h (%): maximum effect at 72 h
Method: For this high-content intracellular imaging assay, H9c2 cells were seeded in 225 cm^2 T- FLASK in DMEM with 10% FBS for 4 h to allow attachment. T. cruzi trypomastigotes, collected at days 5 to 8 after infection from LLC-MK2 parasite infected cultures, were allowed to swim out for 4 h at 37°C from a centrifuged pellet (1,600 x g / 10 min). Trypomastigotes were then collected and counted in a CASY Cell Counter using the 60 μm capillary. Trypomastigotes, in supplemented DMEM, were added to H9c2 cultures in a multiplicity of infection (MOI) of 8 and incubated for 18 h. Cells were washed once with PBS before incubation of the infected H9c2 monolayer with trypsin (Life-Technologies) to detach cells from the flask. Cells were counted in a CASY Cell Counter, using the 150 μm capillary, and their density set at 5 x 10^4 cells/mL in supplemented DMEM. Infected H9c2 were dispensed into 384-well plates at 50 μL per well using a Multidrop Combi dispenser. Control wells used to determine a 100% parasitic growth (full 6th column of each plate) were left untreated, whereas not infected cells were added in the control wells used as 0% parasite growth (or 100% parasite growth inhibition; full 18th column of each plate). The four plates corresponding to each RoK assay were predispensed for the same mother plate. […] Cultures were then fixed and stained with 50 μL per well of a PBS solution containing 4% formaldehyde and 2 μM DRAQ5 DNA dye (BioStatus, UK). Then plates were read in a PerkinElmer Opera Phenix using a 20x objective, 3 fields per well. DRAQ5 signal was detected using 640 nm excitation laser and a 690/50 nm emission detection filter. Automated image analysis was performed with a script developed on Acapella High Content Imaging and Analysis Software (PerkinElmer). Two outputs were provided for each sample well: (1) number of host cells nuclei to determine drug-related cytotoxicity (aka H9c2) and (2) number of amastigotes per cell as infection level measurement (aka AM/CELL). Each output is plotted as a time course for each compound at every concentration. This assay was adapted from Alonso-Padilla et al. and Peña et al..
To identify and classify the different compounds, the number of amastigotes per cell (AM/CELL) raw data obtained in rate of kill assay are normalised using the average of C1 (infected cells) at time 4 hours as 0% effect and the average of C2 (non-infected cells) for each time as 100% effect, according to the following Eq 1: %CIDALRESPONSE=100*[Avg_C14h-RawData]/[Avg_C14h-Avg_C2] (1)
• ME (Maximum Effect) is the maximum percentage of parasite burden reduction reached by any compound concentration. Compounds that decrease the initial parasite load will show a positive value of ME, whereas compounds that allow the progression of infection will render a negative ME value. […] It is calculated for the MCC50 (t50%_MCC50) and for the maximum concentration (t50%_Cmax). […] The value of this parameter is not either interpolated or extrapolated, and it refers to the first experimental time-course point at which a 50% of effect is reached or exceeded. • tlag defines the time elapsed for one particular concentration to reduce parasite burden between two consecutive points at any moment of the time course. It is calculated for the MCC50 (tlag_MCC50) and for the maximum concentration (tlag_Cmax). The value of this parameter is not either interpolated or extrapolated, and it refers to the first experimental time-course point of a positive slope in the normalised plot (i.e. %Cidal_Response). • Cmin_Tox (Minimal CytoToxic Concentration) is the lowest compound concentration that is reducing the number of host mammalian cells below 50% of initial cell density. Cytotoxic compounds may mislead a bona fide antiparasitic action.

[3] = 48 h, read-out: Trypomastigotes pIC50 48 hours (converted)
[4] = 72 h, read-out: Trypomastigotes pIC50 72 hours (converted)

O=C(Cn1ccnc1[N+](=O)[O-])NCc1ccccc1 [Benznidazole, benznidazole, reference compound]
activity in trypomastigotes assay (in words) [1]: active
IC50 [1, 3]: 6310 nM
IC50 [1, 4]: 5010 nM
pIC50 versus trypomastigotes [1]: 5.3
ME (maximum effect) in RoK assay (in words) [2]: higher ME values close to 100%
tlag (in words) [2]: short t-lag values
ME_24h ([2]; figure 5): 49.8205
ME_48h ([2]; figure 5): 84.8832
ME_72h ([2]; figure 5): 90.745
MCCE (Minimal Compound Concentration with Effect) ([2]; Fig 2C, average, lowest concentration that decreases AUC of AM/CELL versus time by at least 50% vs infected control, listed as BNZ): 3.9 µM
MCC50 (Minimal Cidal Concentration 50%) ([2]; Fig 2C, average, lowest concentration that reduces 50% of the parasite load measured at zero time, listed as BNZ): 31.2 µM
t50pct_MCC50 (t50%_MCC50) ([2]; Fig 2C, average, time to reduce 50% of initial parasite load at MCC50, listed as BNZ): 46.2 h
MCC50 ([2]; RoK curve descriptor): 31.2 µM
MCCE ([2]; RoK curve descriptor): 3.9 µM
AM/CELL NORM ([2]; Time 4): 14.6109
AM/CELL NORM ([2]; Time 24): 40.5448
AM/CELL NORM ([2]; Time 48): 53.9104
AM/CELL NORM ([2]; Time 72): 66.8038
Emax at 50 µM ([2]; Trypanosoma cruzi, H9c2, BNZ at 50 μM, 48 hours, read-out: maximum effect): 100%
Emax ([2]; Trypanosoma cruzi, H9c2): 49.2%
t50%_Cmax [2]: 35.0 h
tlag_Cmax [2]: 5.5 h
t50pct_Cmax ([2]; figure 5): 34
tlag_Cmax ([2]; figure 5): 4
t50%_MCC50 ([2]; at MCC50): 46.2 h
tlag_MCC50 ([2]; at MCC50): 8.6 h
t50pct_MCC50 ([2]; at MCC50, figure 5): 46
tlag_MCC50 ([2]; at MCC50, figure 5): 7.333
MCCE ([2]; figure 5): 4.172
MCC50 ([2]; figure 5, in µM): 33.802
ME_24h (%) [2]: 49.8%
ME_48h (%) [2]: 84.9%
ME_72h (%) [2]: 90.7%

CC1CS(=O)(=O)CCN1/N=C/c1ccc([N+](=O)[O-])o1 (stereo not drawn) [Nifurtimox, nifurtimox, reference compound]
activity in trypomastigotes assay (in words) [1]: active
IC50 [1, 3]: 1260 nM
IC50 [1, 4]: 1260 nM
IC50 ([1]; 72 hours, plotted values, censored values given without sign, read-out: 72 pIC50 (trypomastigotes, raw data of Fig 1D) (converted)): 1260 nM
IC50 ([1]; trypomastigote assay, 48 h, figure 1A, read-out: 48 pIC50 (converted)): 1260 nM
IC50 ([1]; trypomastigote assay, 72 h, figure 1A, read-out: 72 pIC50 (converted)): 1260 nM
pIC50 versus trypomastigotes [1]: 5.9
ME (maximum effect) in RoK assay (in words) [2]: higher ME values close to 100%
tlag (in words) [2]: short t-lag values
ME_24h ([2]; figure 5): 79.7791
ME_48h ([2]; figure 5): 100.284
ME_72h ([2]; figure 5): 96.6694
t50pct_Cmax (t50%_Cmax) ([2]; Fig 2C, average, time to reduce 50% of initial parasite load at maximum concentration): 24 h
MCC50 ([2]; RoK curve descriptor): 7.5 µM
MCCE ([2]; RoK curve descriptor): 1.9 µM
AM/CELL NORM ([2]; Time 4): -6.175
AM/CELL NORM ([2]; Time 24): 78.541
AM/CELL NORM ([2]; Time 48): 98.3875
AM/CELL NORM ([2]; Time 72): 101.766
Emax ([2]; Trypanosoma cruzi, H9c2): 81.7%
t50%_Cmax [2]: 24.0 h
tlag_Cmax [2]: 4.0 h
t50pct_Cmax ([2]; figure 5): 25.3333
tlag_Cmax ([2]; figure 5): 4
t50%_MCC50 ([2]; at MCC50): 48.2 h
tlag_MCC50 ([2]; at MCC50): 8.9 h
t50pct_MCC50 ([2]; at MCC50, figure 5): 48.2222
tlag_MCC50 ([2]; at MCC50, figure 5): 8.889
MCCE ([2]; figure 5): 1.852
MCC50 ([2]; figure 5, in µM): 7.545
ME_24h (%) [2]: 79.8%
ME_48h (%) [2]: 100.3%
ME_72h (%) [2]: 96.7%
